Measurements: US20100184955A1, “ANTICANCER PRODRUG SENSITIVE TO TARGET PROTEASE” (priority 2009, published 2010)

System: HeLa cells
Assay: MTT cytotoxicity test in HeLa cells
Type: cell-based
Settings: different concentrations, FIG. 4
Experimental: Each of Dox and albumin-peptide-Dox at different concentrations was added to HeLa cells and then a 3-(4,5-dimethylthiazol-2-yl)-2,5-diphenyltetrazolium bromide (MTT) assay was performed to evaluate cytotoxicity.

## COc1cccc2c1C(=O)c1c(O)c3c(c(O)c1C2=O)C[C@@](O)(C(=O)CO)C[C@@H]3O[C@H]1C[C@H](N)[C@H](O)[C@H](C)O1 [Dox, doxorubicin]
  cytotoxicity (MTT assay): the level of cytotoxicity was increased in proportion to the concentration
